This data set concerns the target CD137 (Homo sapiens, UniProt Q07011). As to the kind of experiment: CD137 reporter assay (Promega, Jurkat cells) in co-culture with EphA2-expressing tumor cells (A549, PC3, HT29). In kind it is cell-based. Details: host or cells: Jurkat reporter cells. The conditions noted are these: for Emax (fold induction over background) / fold induction: CD137 reporter coculture assay with PC3 tumor cells; for EC50: EC50, CD137 reporter coculture assay with PC3 tumor cells; for Fold Improvement over BCY9173, EC50 (nM) / Fold Improvement over Emax: co-culture with PC3; for Fold Improvement over Emax: versus BCY9173; for fold induction: read-out: Emax (fold induction over background). As to the method:
Culture medium, referred to as R1 media, is prepared by adding 1% FBS to RPMI-1640 (component of Promega kit CS196005). Serial dilutions of test articles in R1 are prepared in a sterile 96 well-plate. Add 25 μL per well of test articles or R1 (as a background control) to designated wells in a white cell culture plate. Tumor cells* are harvested and resuspended at a concentration of 400,000 cells/mL in R1 media. Twenty five (25) μL/well of tumor cells are added to the white cell culture plate. Jurkat cells (Promega kit CS196005, 0.5 mL) are thawed in the water bath and then added to 5 ml pre-warmed R1 media. Twenty five (25) μL/well of Jurkat cells are then added to the white cell culture plate. Incubate the cells and test articles for 6 h at 37° C., 5% CO2. At the end of 6 h, add 75 μL/well Bio-Glo™ reagent (Promega) and incubate for 10 min before reading luminescence in a plate reader (Clariostar, BMG). The fold change relative to cells alone (Jurkat cells+Cell line used in co-culture) is calculated and plotted in GraphPad Prism as log(agonist) vs response to determine EC50 (nM) and Fold Induction over background (Max).
The tumor cell types used in co-culture for EphA2 are A549, PC3 and HT29. The tumor cell type used in co-culture for PD-L1 is RKO.
On the technique in general: A reporter such as luciferase makes a cellular process visible.

Starred links: 1 amine or outer side, 2 acyl side, 3 side chain; linkers in the order of their positions; H or OH if unused. Positions of bridges follow the written chain, without caps; N, C: chain ends. Non-standard residues stand in square brackets, D forms with d. Primed or numbered codes have the meaning given here. Chains are numbered I, II in the order given. No end group written: not given here. *: point of attachment. X4 = O=C(CCOCCOCCOCCOCCOCCn1cc(CCC(=O)[*:2])nn1)NCCCN(CCCNC(=O)CCOCCOCCOCCOCCOCCn1cc(CCC(=O)[*:3])nn1)CC(=O)[*:1]; X1 = O=C(CCOCCOCCOCCN(CCOCCOCCOCCn1cc(CCC(=O)[*:2])nn1)CCOCCOCCOCCn1cc(CCC(=O)[*:3])nn1)[*:1]; PYA″ = 4-pentynoic acid, acylating the D-Lys side chain, alkyne clicked to the linker azide; X2 = O=C(CCSCCC(=O)[*:1])N1CN(C(=O)CC[*:2])CN(C(=O)CC[*:3])C1; TATA = O=C(CC[*:1])N1CN(C(=O)CC[*:2])CN(C(=O)CC[*:3])C1; Ala(4-thiazolyl) = N[C@@H](Cc1cscn1)C(=O)O; Dip = N[C@H](C(=O)O)C(c1ccccc1)c1ccccc1; 1Nal = N[C@@H](Cc1cccc2ccccc12)C(=O)O; His(τ-Me) = Cn1cnc(C[C@H](N)C(=O)O)c1; Hyp = O=C(O)[C@@H]1C[C@@H](O)CN1; hArg = N=C(N)NCCCC[C@H](N)C(=O)O; tBuAla = CC(C)(C)C[C@H](N)C(=O)O; Cba = N[C@@H](CC1CCC1)C(=O)O; NMeA = CN[C@@H](C)C(=O)O; Nle = CCCC[C@H](N)C(=O)O; Pent4ynoyl = C#CCCC(=O)*; Mpa = O=C(O)CCS

Sequence of CD137 (Q07011 24-255): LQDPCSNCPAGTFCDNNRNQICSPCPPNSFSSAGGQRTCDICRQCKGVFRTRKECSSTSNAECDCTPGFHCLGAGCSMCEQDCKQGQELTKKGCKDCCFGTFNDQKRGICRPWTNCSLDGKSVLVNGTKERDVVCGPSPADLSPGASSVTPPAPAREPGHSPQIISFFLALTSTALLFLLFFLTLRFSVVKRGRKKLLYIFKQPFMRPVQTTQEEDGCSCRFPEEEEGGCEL

Broadly, the EC50 is the concentration giving half of the maximal effect. In the case of “I: Ac-C[Hyp]LVNPLCL[Dip]P[dD]WTC[dK]-NH2 / II: Ac-C[tBuAla]PE[dK]PYCFADPY[Nle]CA-NH2 / III: Ac-C[tBuAla]PE[dK]PYCFADPY[Nle]CA-NH2 (linker I:1-I:8-I:15, II:1-II:8-II:15, III:1-III:8-III:15 via TATA; linker I:16-II:5-III:5 via X1; C-terminus assumed) [BCY13274]”, the “Emax (fold induction over background)” value is on record as 47.43 and a half-maximal effect (EC50) was put at 0.19 nM.

With “I: A[hArg]DC[Hyp]LVNPLCL[1Nal]P[dD]W[hArg]C-NH2 / II: Ac-C[tBuAla]PE[dK]PYCFADPY[Nle]CA-NH2 / III: Ac-C[tBuAla]PE[dK]PYCFADPY[Nle]CA-NH2 (linker I:4-I:11-I:18, II:1-II:8-II:15, III:1-III:8-III:15 via TATA; linker I:N-II:5-III:5 via X1) [BCY13271]”, the “Emax (fold induction over background)” value came out at 44.20 and the EC50 stood at 0.09 nM. Regarding “I: C[Hyp]LVNPLCLEP[dD]WTC[dA]-NH2 / II: Ac-C[tBuAla]PE[dK]PYCFADPY[Nle]CA-NH2 / III: Ac-C[tBuAla]PE[dK]PYCFADPY[Nle]CA-NH2 (linker I:1-I:8-I:15, II:1-II:8-II:15, III:1-III:8-III:15 via TATA; linker I:N-II:5-III:5 via X1) [BCY13049]”, the “Emax (fold induction over background)” value is on record as 46.03. Turning to “I: A[hArg]DC[Hyp]LVNPLCLHP[dD]W[hArg]C-NH2 / II: Ac-C[tBuAla]PE[dK]PYCFADPY[Nle]CA-NH2 / III: Ac-C[tBuAla]PE[dK]PYCFADPY[Nle]CA-NH2 (linker I:4-I:11-I:18, II:1-II:8-II:15, III:1-III:8-III:15 via TATA; linker I:N-II:5-III:5 via X4) [BCY12979]”, the “Emax (fold induction over background)” value is 71.60 and the EC50 turned out to be 0.08 nM.

“BCY14051: EphA2:CD137 1:2; BCY13919 + 2x BCY8928; linker N-(acid-PEG3)-N-bis(PEG3-azide) (peptide 1 A[hArg]DC[Hyp]LVNPLCL[Ala(4-thiazolyl)]P[dD]W[hArg]C; peptide 2 Ac-C[tBuAla]PE[dK](PYA″)PYCFADPY[Nle]CA; linker I:4-I:11-I:18, II:1-II:8-II:15 via TATA (inferred); not fully specified (N-terminus, bridges); also: 2x chain 2 (2x BCY8928) on linker)”: the “Fold Improvement over BCY9173, EC50 (nM)” value is recorded as 3.15 fold and the “Fold Improvement over Emax” value was 1.88 fold. In the case of “I: A[hArg]DC[Hyp]LVNPLCLEP[dD]WTC[dA]-NH2 / II: Ac-C[tBuAla]PE[dK]PYCFADPY[Nle]CA-NH2 / III: Ac-C[tBuAla]PE[dK]PYCFADPY[Nle]CA-NH2 (linker I:4-I:11-I:18, II:1-II:8-II:15, III:1-III:8-III:15 via TATA; linker I:N-II:5-III:5 via X1) [BCY13045]”, the “Emax (fold induction over background)” value came out at 49.87 and the concentration for a half-maximal effect (EC50) is 0.23 nM. Consider “BCY13279: EphA2:CD137 1:2; BCY13125 (C-term dLys) + 2x BCY8928; linker N-(acid-PEG3)-N-bis(PEG3-azide) (peptide 1 Ac-C[Hyp]LVNPLCLHP[dD]W[hArg]CL[dH]G[dK]; peptide 2 Ac-C[tBuAla]PE[dK](Pent4ynoyl)PYCFADPY[Nle]CA; linker I:1-I:8-I:15 via TATA; linker II:1-II:8-II:15 via TATA (inferred); not fully specified (bridges); also: linker N-(acid-PEG3)-N-bis(PEG3-azide) on C-terminal dK of chain 1, joins two chain 2 copies (2x BCY8928) via PYA triazoles)”, for which the “Fold Improvement over BCY9173, EC50 (nM)” value turned out to be 4.74 fold and the “Fold Improvement over Emax” value is on record as 2.08 fold. Turning to “I: A[hArg]DC[Hyp]LVNPLCLHP[dD]WTC-NH2 / II: Ac-C[tBuAla]PE[dK]PYCFADPY[Nle]CA-NH2 / III: Ac-C[tBuAla]PE[dK]PYCFADPY[Nle]CA-NH2 (linker I:4-I:11-I:18, II:1-II:8-II:15, III:1-III:8-III:15 via TATA; linker I:N-II:5-III:5 via X1) [BCY13043]”, the fold induction turned out to be 52.7 and the EC50 is 0.11 nM. For the substance “I: C[Hyp][Cba]VNPLCL[Dip]P[dD]WTC[dA]-NH2 / II: [Mpa][tBuAla]PE[dK]PYCFADPY[Nle]C-NH2 / III: [tBuAla]PE[dK]PYCFADPY[Nle]C-NH2 (linker I:1-I:8-I:15, II:1-II:8-II:15 via TATA; linker I:N-II:5-III:4 via X1; linker III:N-III:7-III:14 via X2) [BCY13341]”, the “Emax (fold induction over background)” value is reported as 49.15 and the EC50 is 0.19 nM.

As to “BCY14050: EphA2:CD137 1:2; BCY13918 + 2x BCY8928; linker N-(acid-PEG3)-N-bis(PEG3-azide) (peptide 1 A[hArg]DC[Hyp]LVNPLCL[His(τ-Me)]P[dD]W[hArg]C; peptide 2 Ac-C[tBuAla]PE[dK](PYA″)PYCFADPY[Nle]CA; linker I:4-I:11-I:18, II:1-II:8-II:15 via TATA (inferred); not fully specified (N-terminus, bridges); also: 2x chain 2 (2x BCY8928) on linker)”, the “Fold Improvement over BCY9173, EC50 (nM)” value turned out to be 2.05 fold and the “Fold Improvement over Emax” value is reported as 1.91 fold. On to “I: A[hArg]DC[Hyp]LVNPLCLEP[dA]WTC-NH2 / II: Ac-C[tBuAla]PE[dK]PYCFADPY[Nle]CA-NH2 / III: Ac-C[tBuAla]PE[dK]PYCFADPY[Nle]CA-NH2 (linker I:4-I:11-I:18, II:1-II:8-II:15, III:1-III:8-III:15 via TATA; linker I:N-II:5-III:5 via X1) [BCY13046]”, for which the fold induction came to 57.6 and the response was half-maximal at 0.17 nM (EC50). In the case of “I: [NMeA][hArg]DC[Hyp]LVNPLCLHP[dD]W[hArg]C-NH2 / II: Ac-C[tBuAla]PE[dK]PYCFADPY[Nle]CA-NH2 / III: Ac-C[tBuAla]PE[dK]PYCFADPY[Nle]CA-NH2 (linker I:4-I:11-I:18, II:1-II:8-II:15, III:1-III:8-III:15 via TATA; linker I:N-II:5-III:5 via X1) [BCY13275]”, the “Emax (fold induction over background)” value turned out to be 47.50 and a half-maximal effect (EC50) was put at 0.08 nM. For the substance “I: [dA]EDC[Hyp]LVNPLCLEP[dD]WTC-NH2 / II: Ac-C[tBuAla]PE[dK]PYCFADPY[Nle]CA-NH2 / III: Ac-C[tBuAla]PE[dK]PYCFADPY[Nle]CA-NH2 (linker I:4-I:11-I:18, II:1-II:8-II:15, III:1-III:8-III:15 via TATA; linker I:N-II:5-III:5 via X1) [BCY13280]”, the fold induction was determined as 38.1 and the EC50 is 0.19 nM. The like results for “I: A[hArg]DC[Hyp]LVNPLCLEP[dD]W[hArg]C-NH2 / II: Ac-C[tBuAla]PE[dK]PYCFADPY[Nle]CA-NH2 / III: Ac-C[tBuAla]PE[dK]PYCFADPY[Nle]CA-NH2 (linker I:4-I:11-I:18, II:1-II:8-II:15, III:1-III:8-III:15 via TATA; linker I:N-II:5-III:5 via X1) [BCY13042]” were, in that order, 58.3 and 0.08 nM.

For the origin of these results see patent US20230129258A1, “HETEROTANDEM BICYCLIC PEPTIDE COMPLEXES” (BicycleTx Limited, priority 2019, published 2023).
